For 16 compounds, IC50 results are on record in BindingDB's records for patent WO2025045746 (695 Avenue de la Résistance, 2025).

This test addresses T1, NAD(+) hydrolase SARM1 [28-724] (UniProt Q6SZW1).
T1 construct: 28-724
T1 sequence (Q6SZW1 whole entry): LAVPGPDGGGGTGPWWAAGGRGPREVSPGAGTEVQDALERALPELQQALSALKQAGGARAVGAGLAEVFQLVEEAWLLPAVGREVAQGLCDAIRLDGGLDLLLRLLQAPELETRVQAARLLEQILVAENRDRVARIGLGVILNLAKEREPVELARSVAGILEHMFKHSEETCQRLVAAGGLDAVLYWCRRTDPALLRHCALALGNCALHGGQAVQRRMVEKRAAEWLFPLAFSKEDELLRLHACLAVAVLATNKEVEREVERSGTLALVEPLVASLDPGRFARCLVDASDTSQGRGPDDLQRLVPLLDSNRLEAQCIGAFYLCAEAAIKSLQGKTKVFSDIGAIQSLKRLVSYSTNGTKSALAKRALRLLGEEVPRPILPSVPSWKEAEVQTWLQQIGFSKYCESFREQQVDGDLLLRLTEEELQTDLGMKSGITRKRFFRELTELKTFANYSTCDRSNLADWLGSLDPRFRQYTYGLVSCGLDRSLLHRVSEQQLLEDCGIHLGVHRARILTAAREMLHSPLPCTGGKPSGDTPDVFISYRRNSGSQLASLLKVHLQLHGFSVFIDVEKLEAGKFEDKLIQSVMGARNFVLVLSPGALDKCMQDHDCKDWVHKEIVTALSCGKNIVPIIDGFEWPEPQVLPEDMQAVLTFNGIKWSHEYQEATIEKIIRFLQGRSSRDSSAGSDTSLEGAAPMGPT
Nature of the test: SARM1 Inhibitory Activity. The method, then: Assay reagents were prepared in 25mM HEPES pH 7.2, 50mM NaCl, 1mM EDTA and 0.0025% Tween20. […] The peak area of NAD and linear ADPR were measured by a RapidFire High Throughput Mass Spectrometry System (Agilent Technologies, Santa Clara, CA) using an API5000 triple quadrupole mass spectrometer (AB Sciex Framingham, MA). The ratio of linear ADPR to NAD peak area was then plotted against compound concentration to obtain an IC50 as fitted via non-linear regression.

The term pIC50 denotes the negative decadic logarithm of the IC50, by convention in mol/L. Higher therefore signals a low IC50.

pIC50: −log10 of the molar value.

`O=C(c1[nH]nc(-c2ccnnc2)c1Br)N1CC[C@@H](c2ccc(Cl)cc2)C1` [WO2025045746, Example 59] had a pIC50 of 5.75.

On to `O=C(c1cc(-c2ccnnc2)n[nH]1)N1C[C@@H](CO)[C@H](c2ccc(Cl)cc2)C1` [WO2025045746, Example 60], for which the pIC50 was 7.14.

Turning to `O=C(c1cc(-c2ccnnc2)n[nH]1)N1C[C@H](CO)[C@@H](c2ccc(Cl)cc2)C1` [WO2025045746, Example 61], the pIC50 was 5.91.

`O=C(c1[nH]nc(-c2ccnnc2)c1F)N1CC[C@H](c2ccc(Cl)cc2)C1` [WO2025045746, Example 63]: the negative logarithm of the IC50 (pIC50) was 7.02.

For the compound `O=C(c1[nH]nc(-c2ccnnc2)c1F)N1CC[C@@H](c2ccc(Cl)cc2)C1` [WO2025045746, Example 64], the negative logarithm of the IC50 (pIC50) is 6.31.

Compound `C[C@@H]1CN(C(=O)c2cc(-c3ccnnc3)n[nH]2)C[C@H]1c1ccc(Cl)cc1` [WO2025045746, Example 65] had a pIC50 of 7.29.

Compound `O=C(c1[nH]nc(-c2ccnnc2)c1C1CC1)N1CCC(c2ccc(Cl)cc2)C1` (stereo unspecified) [WO2025045746, Example 66] had a pIC50 of 5.52.

`C[C@H](O)[C@@H]1CN(C(=O)c2cc(-c3ccnnc3)n[nH]2)C[C@H]1c1ccc(Cl)cc1` [WO2025045746, Example 67] showed a negative-log IC50 (pIC50) of 6.66. Against the preceding compound, the pIC50 is 1.14 log units higher.

Take `C[C@@H](O)[C@@H]1CN(C(=O)c2cc(-c3ccnnc3)n[nH]2)C[C@H]1c1ccc(Cl)cc1` [WO2025045746, Example 68]: the pIC50 is 6.71.

Compound `O=C(c1cc(-c2ccnnc2)n[nH]1)N1CC[C@@H](c2cc(Cl)cs2)C1` [WO2025045746, Example 69] gave a negative logarithm of the IC50 (pIC50) of 6.13. Against the preceding compound, the pIC50 is 0.58 log units lower.

In turn, `O=C(c1cc(-c2ccnnc2)n[nH]1)N1CC[C@H](c2cc(Cl)cs2)C1` [WO2025045746, Example 70] had a negative logarithm of the IC50 (pIC50) of 6.67.

The compound `N#C[C@@H]1CN(C(=O)c2cc(-c3ccnnc3)n[nH]2)C[C@H]1c1ccc(Cl)cc1` [WO2025045746, Example 72] had a negative logarithm of the IC50 (pIC50) of 6.25.

With `N#C[C@H]1CN(C(=O)c2cc(-c3ccnnc3)n[nH]2)C[C@@H]1c1ccc(Cl)cc1` [WO2025045746, Example 73], the pIC50 is 7.52.

With `O=C(c1cc(-c2ccnnc2)n[nH]1)N1C[C@@H](F)[C@H](c2ccc(Cl)cc2)C1` [WO2025045746, Example 75], the negative-log IC50 (pIC50) was 6.30.

For `O=C(c1cc(-c2ccnnc2)n[nH]1)N1C[C@H](c2ccc(Cl)cc2)[C@@H](F)C1` [WO2025045746, Example 76], the negative-log IC50 (pIC50) was 5.35.

As for `COc1cnccc1-c1cc(C(=O)N2CCC(c3ccc(Cl)cc3)C2)[nH]n1` (stereo unspecified) [WO2025045746, Example 79], the negative-log IC50 (pIC50) was 5.52.
